# Assay results reported in patent US20210290644A1, “COMPOUNDS AND METHODS FOR TREATING FUNGAL INFECTIONS” (Amplyx Pharmaceuticals, Inc., priority 2018, published 2021).
# Where “and” joins values, the source holds several entries; their conditions need not be identical. Identical values can stand only once.
# Test: Study #1 Phase 1: plasma and urine pharmacokinetics of Compound 1 and Compound 1A after IV infusion of Compound 1 (SAD, MAD, loading regimen)
# Settings: both, human, plasma; for Vd: Vz
# [1] = 200 mg, Cohort 4: Compound 1 200 mg/3 hr IV, single dose, geometric mean [geometric %CV]
# [2] = 275 mg, Cohort 5: Compound 1 275 mg/3 hr IV, single dose, geometric mean [geometric %CV]
# [3] = 300 mg, Cohort 9: Compound 1 300 mg/3 hr IV QD × 14 days, Day 14, geometric mean
# [4] = 600 mg, Cohort 10: Compound 1 600 mg/3 hr IV QD × 14 days, Day 14, geometric mean
# [5] = 600 mg, Cohort 12 loading regimen: Compound 1 600 mg/1 hr IV QD, Day 7, geometric mean
# [6] = 1000 mg, Cohort 11: Compound 1 1,000 mg/0.5 hr IV, single dose, geometric mean
# [7] = 1000 mg, Cohort 11: Compound 1 1,000 mg/1 hr IV, single dose, geometric mean
# [8] = 1000 mg, Cohort 11: Compound 1 1,000 mg/2 hr IV, single dose, geometric mean
# [9] = 1000 mg, Cohort 11: Compound 1 1,000 mg/3 hr IV, single dose, geometric mean
# Text: This was a Phase 1, first-in-human, randomized, double-blind, placebo-controlled single ascending dose (SAD) and multiple ascending dose (MAD) escalation study of 120 healthy male and female subjects. The objectives of the study were to evaluate the safety, tolerability, and pharmacokinetics of single and multiple doses of Compound 1 administered by intravenous (IV) infusion.
# In the single ascending dose (SAD) phase, Cohorts 1 to 6 and 11A to 11D received single doses. For Cohorts 11A to 11D, the infusion time varied from 0.5 to 3 hours to evaluate the relationship between C., and tolerability. In the multiple ascending dose (MAD) phase, Cohorts 7 to 10 received multiple doses over 14 days, and Cohort 12 examined the feasibility of a loading dose regimen.
# Blood samples for the determination of Compound 1 and Compound 1A plasma concentrations were collected before and at appropriate times during all single- and multiple-dose administrations of Compound 1. For SAD Cohorts 1 to 6, urine samples for the determination of Compound 1A were collected through 48 hrs after dosing.
# Eighty (80) subjects were enrolled into SAD Cohorts 1 to 6 and 11A to 11D. Within each cohort, six subjects were randomized to Compound 1 and two subjects to placebo. All 60 subjects randomized to Compound 1 completed dosing. Fifty-nine (59) subjects completed the study.
# Forty (40) subjects were enrolled into MAD Cohorts 7 to 10 and Loading Dose Cohort 12. Within each cohort, six subjects were randomized to Compound 1 and two subjects to placebo.
# The PK analysis population therefore consisted of 60 subjects in the SAD phase and 28 subjects in the MAD phase.
smiles,measurement,setting,value
Nc1ncccc1-c1cc(Cc2ccc(COc3ccccn3)cc2)no1 [Compound 1A],AUC(0-t),"150 mg, AUC(0-24), Cohort 8: Compound 1 150 mg/3 hr IV QD × 14 days, Day 7, geometric mean",48.7 µg·h/mL
same,Cmax,"150 mg, Cohort 8: Compound 1 150 mg/3 hr IV QD × 14 days, Day 1, geometric mean",1860 ng/mL
same,Cmax,"150 mg, Cohort 8: Compound 1 150 mg/3 hr IV QD × 14 days, Day 7, geometric mean",3090 ng/mL
same,Tmax,"150 mg, Cohort 8: Compound 1 150 mg/3 hr IV QD × 14 days, Day 1, median",3 h
same,Tmax,"150 mg, Cohort 8: Compound 1 150 mg/3 hr IV QD × 14 days, Day 7, median",3 h
same,Tmax,"150 mg, Cohort 8: Compound 1 150 mg/3 hr IV QD × 14 days, Day 14, median",3.02 h
same,AUC(0-t),"200 mg, AUC(0-24), Cohort 4: Compound 1 200 mg/3 hr IV, single dose, geometric mean [geometric %CV]",20.7 µg·h/mL
same,AUC(0-inf),[1],83.2 µg·h/mL
same,Cmax,[1],2410 ng/mL
same,Tmax,"200 mg, Cohort 4: Compound 1 200 mg/3 hr IV, single dose, median",3 h
same,Vd,[1],178 L and 2.46 L/kg
same,AUC(0-t),"275 mg, AUC(0-24), Cohort 5: Compound 1 275 mg/3 hr IV, single dose, geometric mean [geometric %CV]",37.1 µg·h/mL
same,AUC(0-t),"275 mg, AUC(0-t), Cohort 5: Compound 1 275 mg/3 hr IV, single dose, geometric mean [geometric %CV]",114 µg·h/mL
same,AUC(0-inf),[2],120 µg·h/mL
same,Cmax,[2],3960 ng/mL
same,Tmax,"275 mg, Cohort 5: Compound 1 275 mg/3 hr IV, single dose, median",3 h
same,Vd,[2],123 L and 1.75 L/kg
same,AUC(0-t),"300 mg, AUC(0-24), Cohort 9: Compound 1 300 mg/3 hr IV QD × 14 days, Day 1, geometric mean",37.1 µg·h/mL
same,AUC(0-t),"300 mg, AUC(0-24), Cohort 9: Compound 1 300 mg/3 hr IV QD × 14 days, Day 7, geometric mean",104 µg·h/mL
same,AUC(0-t),"300 mg, AUC(0-24), Cohort 9: Compound 1 300 mg/3 hr IV QD × 14 days, Day 14, geometric mean",118 µg·h/mL
same,Cmax,"300 mg, Cohort 9: Compound 1 300 mg/3 hr IV QD × 14 days, Day 1, geometric mean",3690 ng/mL
same,Cmax,"300 mg, Cohort 9: Compound 1 300 mg/3 hr IV QD × 14 days, Day 7, geometric mean",6650 ng/mL
same,Cmax,[3],7520 ng/mL
same,Tmax,"300 mg, Cohort 9: Compound 1 300 mg/3 hr IV QD × 14 days, Day 1, median",3 h
same,Tmax,"300 mg, Cohort 9: Compound 1 300 mg/3 hr IV QD × 14 days, Day 7, median",3 h
same,Tmax,"300 mg, Cohort 9: Compound 1 300 mg/3 hr IV QD × 14 days, Day 14, median",3.02 h
same,Vd,[3],148 L and 2.22 L/kg
same,Tmax,"350 mg, Cohort 6: Compound 1 350 mg/3 hr IV, single dose, median",3 h
same,AUC(0-t),"600 mg, AUC(0-24), Cohort 10: Compound 1 600 mg/3 hr IV QD × 14 days, Day 1, geometric mean",72.7 µg·h/mL
same,AUC(0-t),"600 mg, AUC(0-24), Cohort 10: Compound 1 600 mg/3 hr IV QD × 14 days, Day 7, geometric mean",217 µg·h/mL
same,AUC(0-t),"600 mg, AUC(0-24), Cohort 10: Compound 1 600 mg/3 hr IV QD × 14 days, Day 14, geometric mean",245 µg·h/mL
same,AUC(0-t),"600 mg, AUC(0-24), Cohort 12 loading regimen: Compound 1 600 mg/1 hr IV QD, Day 4, geometric mean",219 µg·h/mL
same,AUC(0-t),"600 mg, AUC(0-24), Cohort 12 loading regimen: Compound 1 600 mg/1 hr IV QD, Day 7, geometric mean",201 µg·h/mL
same,Cmax,"600 mg, Cohort 10: Compound 1 600 mg/3 hr IV QD × 14 days, Day 1, geometric mean",7570 ng/mL
same,Cmax,"600 mg, Cohort 10: Compound 1 600 mg/3 hr IV QD × 14 days, Day 7, geometric mean",14500 ng/mL
same,Cmax,[4],15400 ng/mL
same,Cmax,"600 mg, Cohort 12 loading regimen: Compound 1 600 mg/1 hr IV QD, Day 4, geometric mean",17900 ng/mL
same,Cmax,[5],17700 ng/mL
same,Tmax,"600 mg, Cohort 10: Compound 1 600 mg/3 hr IV QD × 14 days, Day 1, median",3 h
same,Tmax,"600 mg, Cohort 10: Compound 1 600 mg/3 hr IV QD × 14 days, Day 7, median",3.03 h
same,Tmax,"600 mg, Cohort 10: Compound 1 600 mg/3 hr IV QD × 14 days, Day 14, median",3 h
same,Tmax,"600 mg, Cohort 12 loading regimen: Compound 1 600 mg/1 hr IV QD, Day 4, median",1 h
same,Tmax,"600 mg, Cohort 12 loading regimen: Compound 1 600 mg/1 hr IV QD, Day 7, median",1 h
same,Vd,[4],175 L and 2.75 L/kg
same,Vd,[5],162 L and 2.27 L/kg
same,AUC(0-t),"1000 mg, AUC(0-24), Cohort 11: Compound 1 1,000 mg/0.5 hr IV, single dose, geometric mean",131 µg·h/mL
same,AUC(0-t),"1000 mg, AUC(0-24), Cohort 11: Compound 1 1,000 mg/1 hr IV, single dose, geometric mean",134 µg·h/mL
same,AUC(0-t),"1000 mg, AUC(0-24), Cohort 11: Compound 1 1,000 mg/2 hr IV, single dose, geometric mean",130 µg·h/mL
same,AUC(0-t),"1000 mg, AUC(0-24), Cohort 11: Compound 1 1,000 mg/3 hr IV, single dose, geometric mean",117 µg·h/mL
same,AUC(0-t),"1000 mg, AUC(0-24), Cohort 12 loading regimen: Compound 1 1,000 mg/2 hr IV at 0 & 9 hr, Day 1, geometric mean",211 µg·h/mL
same,AUC(0-t),"1000 mg, AUC(0-t), Cohort 11: Compound 1 1,000 mg/1 hr IV, single dose, geometric mean",481 µg·h/mL
same,AUC(0-t),"1000 mg, AUC(0-t), Cohort 11: Compound 1 1,000 mg/2 hr IV, single dose, geometric mean",476 µg·h/mL
same,AUC(0-inf),[6],434 µg·h/mL
same,AUC(0-inf),[7],536 µg·h/mL
same,AUC(0-inf),[8],541 µg·h/mL
same,AUC(0-inf),[9],400 µg·h/mL
same,Cmax,[6],24900 ng/mL
same,Cmax,[7],20100 ng/mL
same,Cmax,[8],15600 ng/mL
same,Cmax,[9],11900 ng/mL
same,Cmax,"1000 mg, Cohort 12 loading regimen: Compound 1 1,000 mg/2 hr IV at 0 & 9 hr, Day 1, geometric mean",15700 ng/mL
same,Tmax,"1000 mg, Cohort 11: Compound 1 1,000 mg/0.5 hr IV, single dose, median",0.52 h
same,Tmax,"1000 mg, Cohort 11: Compound 1 1,000 mg/1 hr IV, single dose, median",1.02 h
same,Tmax,"1000 mg, Cohort 11: Compound 1 1,000 mg/2 hr IV, single dose, median",2.02 h
same,Tmax,"1000 mg, Cohort 11: Compound 1 1,000 mg/3 hr IV, single dose, median",3.02 h
same,Tmax,"1000 mg, Cohort 12 loading regimen: Compound 1 1,000 mg/2 hr IV at 0 & 9 hr, Day 1, median",11 h
same,Vd,[6],141 L and 19.7 L/kg
same,Vd,[7],139 L and 2.11 L/kg
same,Vd,[8],153 L and 2.43 L/kg
same,Vd,[9],153 L and 2.02 L/kg
